Measurements published in PubChem BioAssay (NCI).
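Growth conditions: 96-well plates. Treatment: test compound, 48 hours, 5 concentrations. Analysis: linear interpolation between bracketing concentrations; unreached endpoints set to highest concentration. Abbreviation: GI50, concentration required for 50% inhibition of growth. TGI: total growth inhibition.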

Assays:
Experiment in all cases: inhibition of tumour cell growth, NCI panel, 48 h
NCI-H460 lung = tested on: NCI-H460 lung
MALME-3M melanoma = tested on: MALME-3M melanoma
HS 578T breast = tested on: HS 578T breast
HT29 colon = tested on: HT29 colon
KM12 colon = tested on: KM12 colon
SF-539 CNS = tested on: SF-539 CNS
SK-MEL-28 melanoma = tested on: SK-MEL-28 melanoma
SF-268 CNS = tested on: SF-268 CNS
MCF7 breast = tested on: MCF7 breast
T-47D breast = tested on: T-47D breast
RPMI-8226 leukemia = tested on: RPMI-8226 leukemia
OVCAR-8 ovarian = tested on: OVCAR-8 ovarian
SW-620 colon = tested on: SW-620 colon
A498 renal = tested on: A498 renal
HCT-15 colon = tested on: HCT-15 colon
SK-OV-3 ovarian = tested on: SK-OV-3 ovarian
NCI-H522 lung = tested on: NCI-H522 lung
UACC-257 melanoma = tested on: UACC-257 melanoma
NCI-H226 lung = tested on: NCI-H226 lung
A549 NSCLC = tested on: A549 NSCLC
EKVX NSCLC = tested on: EKVX NSCLC
U251 CNS = tested on: U251 CNS
RXF 393 renal = tested on: RXF 393 renal
SNB-75 CNS = tested on: SNB-75 CNS
786-0 renal = tested on: 786-0 renal
BT-549 breast = tested on: BT-549 breast
CCRF-CEM leukemia = tested on: CCRF-CEM leukemia
MDA-MB-231 breast = tested on: MDA-MB-231 breast
NCI-H23 lung = tested on: NCI-H23 lung
SN12C renal = tested on: SN12C renal
HL-60(TB) leukemia = tested on: HL-60(TB) leukemia
PC-3 prostate = tested on: PC-3 prostate
NCI/ADR-RES ovarian = tested on: NCI/ADR-RES ovarian
OVCAR-3 ovarian = tested on: OVCAR-3 ovarian
SNB-19 CNS = tested on: SNB-19 CNS
SF-295 CNS = tested on: SF-295 CNS
HCC-2998 colon = tested on: HCC-2998 colon
IGROV1 ovarian = tested on: IGROV1 ovarian
OVCAR-4 ovarian = tested on: OVCAR-4 ovarian
UACC-62 melanoma = tested on: UACC-62 melanoma
CAKI-1 renal = tested on: CAKI-1 renal
TK-10 renal = tested on: TK-10 renal
OVCAR-5 ovarian = tested on: OVCAR-5 ovarian
SK-MEL-2 melanoma = tested on: SK-MEL-2 melanoma
SK-MEL-5 melanoma = tested on: SK-MEL-5 melanoma
K-562 leukemia = tested on: K-562 leukemia
M14 melanoma = tested on: M14 melanoma
HOP-92 NSCLC = tested on: HOP-92 NSCLC
MDA-MB-435 = tested on: MDA-MB-435
HOP-62 NSCLC = tested on: HOP-62 NSCLC
HCT-116 colon = tested on: HCT-116 colon
DU-145 prostate = tested on: DU-145 prostate
SR leukemia = tested on: SR leukemia
UO-31 renal = tested on: UO-31 renal
ACHN renal = tested on: ACHN renal
MOLT-4 leukemia = tested on: MOLT-4 leukemia
LOX IMVI melanoma = tested on: LOX IMVI melanoma
COLO 205 colon = tested on: COLO 205 colon

Structure (SMILES): O=C(Nc1ccc(CN2CCOCC2)cc1)c1[nH]ncc1Nc1ncnc2sccc12
- GI50 (NCI-H460 lung): 0.314 µM
- TGI (NCI-H460 lung): 10.9 µM
- GI50 (MALME-3M melanoma): 1.83 µM
- TGI (MALME-3M melanoma): 8.61 µM
- GI50 (HS 578T breast): 0.14 µM
- TGI (HS 578T breast): 4.81 µM
- GI50 (HT29 colon): 0.686 µM
- TGI (HT29 colon): > 100 µM
- GI50 (KM12 colon): 0.311 µM
- TGI (KM12 colon): 10.1 µM
- GI50 (SF-539 CNS): 0.141 µM
- TGI (SF-539 CNS): 1.15 µM
- GI50 (SK-MEL-28 melanoma): 0.629 µM
- TGI (SK-MEL-28 melanoma): 16.8 µM
- GI50 (SF-268 CNS): 0.595 µM
- TGI (SF-268 CNS): 5.6 µM
- GI50 (MCF7 breast): 0.265 µM
- TGI (MCF7 breast): > 100 µM
- GI50 (T-47D breast): 0.739 µM
- TGI (T-47D breast): > 100 µM
- GI50 (RPMI-8226 leukemia): 0.517 µM
- TGI (RPMI-8226 leukemia): 4.33 µM
- GI50 (OVCAR-8 ovarian): 0.522 µM
- TGI (OVCAR-8 ovarian): 22.4 µM
- GI50 (SW-620 colon): 0.418 µM
- TGI (SW-620 colon): > 100 µM
- GI50 (A498 renal): 0.0363 µM
- TGI (A498 renal): 0.461 µM
- GI50 (HCT-15 colon): 0.277 µM
- TGI (HCT-15 colon): 16.7 µM
- GI50 (SK-OV-3 ovarian): 0.103 µM
- TGI (SK-OV-3 ovarian): > 100 µM
- GI50 (NCI-H522 lung): 0.413 µM
- TGI (NCI-H522 lung): 4.17 µM
- GI50 (UACC-257 melanoma): 1.96 µM
- TGI (UACC-257 melanoma): 25.2 µM
- GI50 (NCI-H226 lung): 0.163 µM
- TGI (NCI-H226 lung): 0.63 µM
- GI50 (A549 NSCLC): 0.306 µM
- TGI (A549 NSCLC): 13.8 µM
- GI50 (EKVX NSCLC): 0.805 µM
- TGI (EKVX NSCLC): 4.3 µM
- GI50 (U251 CNS): 0.281 µM
- TGI (U251 CNS): 13.2 µM
- GI50 (RXF 393 renal): 0.204 µM
- TGI (RXF 393 renal): 0.639 µM
- GI50 (SNB-75 CNS): 0.0174 µM
- TGI (SNB-75 CNS): 2.04 µM
- GI50 (786-0 renal): 0.48 µM
- TGI (786-0 renal): 7.96 µM
- GI50 (BT-549 breast): 0.896 µM
- TGI (BT-549 breast): 5.88 µM
- GI50 (CCRF-CEM leukemia): 0.337 µM
- TGI (CCRF-CEM leukemia): 27.7 µM
- GI50 (MDA-MB-231 breast): 0.854 µM
- TGI (MDA-MB-231 breast): > 100 µM
- GI50 (NCI-H23 lung): 0.358 µM
- TGI (NCI-H23 lung): 2.49 µM
- GI50 (SN12C renal): 0.39 µM
- TGI (SN12C renal): > 100 µM
- GI50 (HL-60(TB) leukemia): 0.249 µM
- TGI (HL-60(TB) leukemia): 0.72 µM
- GI50 (PC-3 prostate): 0.494 µM
- TGI (PC-3 prostate): > 100 µM
- GI50 (NCI/ADR-RES ovarian): 0.578 µM
- TGI (NCI/ADR-RES ovarian): > 100 µM
- GI50 (OVCAR-3 ovarian): 0.29 µM
- TGI (OVCAR-3 ovarian): 2.81 µM
- GI50 (SNB-19 CNS): 0.703 µM
- TGI (SNB-19 CNS): > 100 µM
- GI50 (SF-295 CNS): 0.484 µM
- TGI (SF-295 CNS): 16.5 µM
- GI50 (HCC-2998 colon): 0.68 µM
- TGI (HCC-2998 colon): 5.08 µM
- GI50 (IGROV1 ovarian): 0.578 µM
- TGI (IGROV1 ovarian): 23.6 µM
- GI50 (OVCAR-4 ovarian): 0.6 µM
- TGI (OVCAR-4 ovarian): 6.28 µM
- GI50 (UACC-62 melanoma): 0.707 µM
- TGI (UACC-62 melanoma): 5.7 µM
- GI50 (CAKI-1 renal): 0.477 µM
- TGI (CAKI-1 renal): > 100 µM
- GI50 (TK-10 renal): 1.64 µM
- TGI (TK-10 renal): > 100 µM
- GI50 (OVCAR-5 ovarian): 0.904 µM
- TGI (OVCAR-5 ovarian): > 100 µM
- GI50 (SK-MEL-2 melanoma): 0.36 µM
- TGI (SK-MEL-2 melanoma): 2.14 µM
- GI50 (SK-MEL-5 melanoma): 0.223 µM
- TGI (SK-MEL-5 melanoma): 0.638 µM
- GI50 (K-562 leukemia): 0.402 µM
- TGI (K-562 leukemia): > 100 µM
- GI50 (M14 melanoma): 0.56 µM
- TGI (M14 melanoma): 13 µM
- GI50 (HOP-92 NSCLC): 5.52 µM
- TGI (HOP-92 NSCLC): > 100 µM
- GI50 (MDA-MB-435): 0.525 µM
- TGI (MDA-MB-435): 11.7 µM
- GI50 (HOP-62 NSCLC): 0.669 µM
- TGI (HOP-62 NSCLC): 41.6 µM
- GI50 (HCT-116 colon): 0.217 µM
- TGI (HCT-116 colon): 12.3 µM
- GI50 (DU-145 prostate): 0.382 µM
- TGI (DU-145 prostate): 15.5 µM
- GI50 (SR leukemia): 0.261 µM
- TGI (SR leukemia): 0.989 µM

Structure (SMILES): O=C(c1ccc2ccccc2c1)N(Cc1cccnc1)C(=S)N(Cc1cccnc1)C(=O)c1ccc2ccccc2c1
- TGI (NCI-H460 lung): 95.7 µM
- TGI (UO-31 renal): 97.8 µM
- TGI (MALME-3M melanoma): > 100 µM
- TGI (HS 578T breast): > 100 µM
- TGI (HT29 colon): 81.2 µM
- TGI (KM12 colon): 40 µM
- TGI (SF-539 CNS): > 100 µM
- TGI (SK-MEL-28 melanoma): > 100 µM
- TGI (ACHN renal): > 100 µM
- TGI (SF-268 CNS): 78.5 µM
- TGI (MCF7 breast): > 100 µM
- TGI (T-47D breast): 65.8 µM
- TGI (RPMI-8226 leukemia): > 100 µM
- TGI (OVCAR-8 ovarian): 66.5 µM
- TGI (SW-620 colon): > 100 µM
- TGI (A498 renal): > 100 µM
- TGI (HCT-15 colon): > 100 µM
- TGI (SK-OV-3 ovarian): > 100 µM
- TGI (NCI-H522 lung): > 100 µM
- TGI (UACC-257 melanoma): 48.7 µM
- TGI (NCI-H226 lung): > 100 µM
- TGI (A549 NSCLC): > 100 µM
- TGI (EKVX NSCLC): 77.1 µM
- TGI (U251 CNS): 38.6 µM
- TGI (MOLT-4 leukemia): > 100 µM
- TGI (RXF 393 renal): 43.9 µM
- TGI (SNB-75 CNS): 53.5 µM
- TGI (786-0 renal): 73.4 µM
- TGI (BT-549 breast): 38.6 µM
- TGI (CCRF-CEM leukemia): > 100 µM
- TGI (MDA-MB-231 breast): 44.1 µM
- TGI (NCI-H23 lung): 63.7 µM
- TGI (SN12C renal): > 100 µM
- TGI (HL-60(TB) leukemia): > 100 µM
- TGI (PC-3 prostate): > 100 µM
- TGI (NCI/ADR-RES ovarian): 88.7 µM
- TGI (OVCAR-3 ovarian): 42.7 µM
- TGI (SNB-19 CNS): > 100 µM
- TGI (SF-295 CNS): > 100 µM
- TGI (HCC-2998 colon): 32 µM
- TGI (OVCAR-4 ovarian): 45.3 µM
- TGI (UACC-62 melanoma): > 100 µM
- TGI (CAKI-1 renal): 44 µM
- TGI (TK-10 renal): 78.9 µM
- TGI (OVCAR-5 ovarian): > 100 µM
- TGI (SK-MEL-2 melanoma): 75.7 µM
- TGI (LOX IMVI melanoma): 37 µM
- TGI (SK-MEL-5 melanoma): 41.3 µM
- TGI (COLO 205 colon): 75.1 µM
- TGI (K-562 leukemia): > 100 µM
- TGI (M14 melanoma): 55 µM
- TGI (HOP-92 NSCLC): 69.7 µM
- TGI (MDA-MB-435): > 100 µM
- TGI (HOP-62 NSCLC): 55.2 µM
- TGI (HCT-116 colon): > 100 µM
- TGI (DU-145 prostate): 69.5 µM
- TGI (SR leukemia): > 100 µM
